Data on one compound can be found in paper PMC3340383, “Synthesis and Evaluation of a Series of 2-Substituted-5-Thiopropylpiperazine (Piperidine)-1,3,4-Oxadiazoles Derivatives as Atypical Antipsychotics” (PLoS ONE, 2012).

As a reminder, the LD50 is the dose at which mortality reaches 50%. Read a high LD50 as lower toxicity. What is called Ki is a dissociation constant, usually derived from enzyme kinetics or from competition with a known ligand.

Structures are written as SMILES. Marks after values point to notes of the source that are not given here.

For series [1], the system named is mice. As to the kind of experiment: Acute toxicity study. It is filed as in vivo. To be noted: oral, survival after 24 h, highest dose 2000 mg/kg. The method, then: The number of surviving animals was recorded after 24 h of drug administration, and the percent mortality in each group was calculated.
The target in series [2] is T1, histamine H1 receptor (Cavia porcellus, UniProt P31389).
T1 construct: Guinea pig cerebellum was homogenized in 20 volumes of ice-cold 50 mM phosphate buffer; from tissue; host or cells: guinea pig cerebellum
Kind of series: Histamine H1 binding assay ([3H]pyrilamine, guinea pig cerebellum). To be noted: [3H]pyrilamine, guinea pig cerebellum; mean of three experiments; >10000 marked b: Ki not calculated, inhibition at 10 µM too low; read-out: Ki±SEM, H1. The method, then: (§1) All the new compounds were dissolved in 5% DMSO. The following specific radioligands and tissue sources were used: (a) serotonin 5-HT1A receptor, [^3H]8-OH-DPAT, rat brain cortex; (b) serotonin 5-HT2A receptor, [^3H]ketanserin, rat brain cortex; (c) serotonin 5-HT2C receptor, [^3H]mesulergine, rat brain cortex; (d) dopamine D2 receptor, [^3H]spiperone, rat striatum; (e) dopamine D3 receptor, [^3H]spiperone, rat olfactory tubercle (f) histamine H1 receptor, [^3H] pyrilamine, guinea pig cerebellum.
(§2) Total binding was determined in the absence of no-specific binding and compounds. Specific binding was determined in the presence of compounds. Non-specific binding was determined as the difference between total and specific binding.
(§3) Percentage of inhibition (%) = (total binding − specific binding)×100%/(total binding − nonspecific binding).
(§4) Ki values were calculated based on the Cheng and Prussoff equation: Ki = IC50/(1+C/Kd) where C represents the concentration of the hot ligand used and Kd its receptor dissociation constant were calculated for each labeled ligand. Mean Ki values and SEM were reported for at least three independent experiments.
(§5) The incubation was followed by a rapid vacuum filtration through Whatman GF/B glass filters, and the filtrates were washed twice with 5 mL cold buffer and transferred to scintillation vials. Scintillation fluid (3.0 mL) was added and the radioactivity bound was measured using a Beckman LS 6500 liquid scintillation counter.

For series [3], the target named is T2, dopamine D3 receptor (Rattus norvegicus, UniProt P19020).
T2 construct: Rat olfactory tubercle was homogenized in 20 volumes of ice-cold 50 mM Hepes Na; from tissue; host or cells: rat olfactory tubercle
Kind of series: D3 dopaminergic binding assay ([3H]spiperone, rat olfactory tubercle). To be noted: mean of three experiments, read-out: Ki±SEM, D3. The method, then: as §1, §2, §3, §4, §5

For series [4], the system named is MK-801-induced hyperactivity in mice. As to the kind of experiment: MK-801-induced hyperactivity. To be noted: mice, po; 95% confidence limits in parentheses.
Series [5] concerns apomorphine-induced climbing behavior in mice. As to the kind of experiment: Apomorphine-induced climbing. To be noted: mice, po; 95% confidence limits in parentheses. Type of series: in vivo. The method, then:
. […] . Animals were then challenged at 30 minutes post-injection with 1.0 mg/kg of the apomorphine in 0.9% NaCl+0.1% ascorbic acid, placed in cylindrical wire cages (12 cm in diameter, 14 cm in height), and observed for climbing behavior at 10, 20 and 30 min post dose. The climbing behaviour was scored as follows: 3–4 paws on the cage floor = 0 score; 2 and 3 paws on the cage = 1 score; 4 paws on the cage = 2 score.

Series [6] has as its target T3, serotonin 5-HT2A receptor (Rattus norvegicus, UniProt P14842).
T3 construct: Rat cerebral cortex was homogenized in 20 volumes of ice-cold Tris-HCl buffer; from tissue; host or cells: rat brain (cerebral) cortex
Kind of series: 5-HT2A binding assay ([3H]ketanserin, rat brain cortex). To be noted: [3H]ketanserin, rat brain cortex; mean of three experiments; >10000 marked b: Ki not calculated, inhibition at 10 µM too low; read-out: Ki±SEM, 5HT2A. The method, then: as §1, §2, §3, §4
Rat cerebral cortex was homogenized in 20 volumes of ice-cold Tris-HCl buffer (50 mM, pH 7.7) using an ULTRA TURAX homogeniser, and centrifuged at 32000 g for 20 min. The resulting pellet was resuspended in the same quantity of the buffer centrifuged for 20 min. The final pellet was resuspended in 50 volumes of the Tris-HCl buffer.
Total binding each assay tube was added 900 µL of the tissue suspension, 50 µL of 0.6 nM [^3H]ketanserin (60.0 Ci/mmol, Perkin Elmer Life Sciences, Boston, MA, USA), 50 µL Tris-HCl buffer.
Non-specific binding each assay tube was added 900 µL of the tissue suspension, 50 µL of 0.6 nM [^3H]ketanserin, 50 µL of 10 µM methisergide.
Specific binding each assay tube was added 900 µL of the tissue suspension, 50 µL of 0.6 nM [^3H]ketanserin, […] of new compounds or reference drug.
as §5

In series [7] the target is T4, dopamine D2 receptor (Rattus norvegicus, UniProt P61169).
T4 construct: Rat striatum was homogenized in 20 volumes of ice-cold 50 mM Tris-HCl buffer; from tissue; host or cells: rat striatum
Kind of series: D2 dopaminergic binding assay ([3H]spiperone, rat striatum). To be noted: [3H]spiperone, rat striatum; mean of three experiments; >10000 marked b: Ki not calculated, inhibition at 10 µM too low; read-out: Ki±SEM, D2. The method, then: as §1, §2, §3, §4
Rat striatum was homogenized in 20 volumes of ice-cold 50 mM Tris-HCl buffer (pH 7.7) using an ULTRA TURAX homogeniser, and centrifuged twice for 10 min at 48,000 g with resuspension of the pellet in fresh buffer. The final pellet was resuspended in 50 mM ice-cold Tris-HCl containing 120 mM NaCl, 5 mM KCl, 2 mM CaCl2, 1 mM MgCl2, 0.1% ascorbic acid and 5 µM pargyline.
Total binding each assay tube was added 900 µL of the tissue suspension, 50 µL of 0.5 nM [^3H]spiperone (16.2 Ci/mmol; Perkin Elmer Life Sciences, Boston, MA, USA), 50 µL Tris-HCl buffer containing 120 mM NaCl, 5 mM KCl, 2 mM CaCl2, 1 mM MgCl2, 0.1% ascorbic acid and 5 µM pargyline.
Non-specific binding each assay tube was added 900 µL of the tissue suspension, 50 µL of 0.5 nM [^3H]spiperone, 50 µL of 10 µM (+)-butaclamol.
Specific binding each assay tube was added 900 µL of the tissue suspension, 50 µL of 0.5 nM [^3H]spiperone, 50 µL of new compounds or reference drug.
as §5

For series [8], the target named is T5, serotonin 5-HT2C receptor (Rattus norvegicus, UniProt P08909).
T5 construct: Rat cerebral cortex was homogenized in 20 volumes of ice-cold Tris-HCl buffer; from tissue; host or cells: rat brain (cerebral) cortex
T5 sequence (P08909 33-460): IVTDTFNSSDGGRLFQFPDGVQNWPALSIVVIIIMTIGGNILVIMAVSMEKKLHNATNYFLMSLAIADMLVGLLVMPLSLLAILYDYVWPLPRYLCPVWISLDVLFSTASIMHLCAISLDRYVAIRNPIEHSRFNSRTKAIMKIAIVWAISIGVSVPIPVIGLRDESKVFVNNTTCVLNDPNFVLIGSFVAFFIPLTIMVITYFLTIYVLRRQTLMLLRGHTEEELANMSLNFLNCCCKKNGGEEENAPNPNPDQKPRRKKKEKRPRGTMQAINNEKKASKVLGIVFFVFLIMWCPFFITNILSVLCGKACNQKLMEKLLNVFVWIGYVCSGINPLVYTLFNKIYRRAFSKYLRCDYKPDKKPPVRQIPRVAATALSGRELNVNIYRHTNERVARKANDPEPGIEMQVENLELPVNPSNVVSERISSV
As to the kind of experiment: 5-HT2C binding assay ([3H]mesulergine, rat brain cortex). To be noted: mean of three experiments, read-out: Ki±SEM, 5HT2C. The method, then:
as §1
Total binding was determined in the absence of no-specific binding and compounds. Specific binding was determined in the presence of compounds. Non-specific binding was determined as the difference between total and specific binding. […]
Ki values were calculated based on the Cheng and Prussoff equation: Ki = IC50/(1+C/Kd) where C represents the concentration of the hot ligand used and Kd its receptor dissociation constant were calculated for each labeled ligand. […]
The resulting pellet was resuspended in the same quantity of the buffer centrifuged for 20 min. […]
as §5

T3 sequence (P14842 whole entry): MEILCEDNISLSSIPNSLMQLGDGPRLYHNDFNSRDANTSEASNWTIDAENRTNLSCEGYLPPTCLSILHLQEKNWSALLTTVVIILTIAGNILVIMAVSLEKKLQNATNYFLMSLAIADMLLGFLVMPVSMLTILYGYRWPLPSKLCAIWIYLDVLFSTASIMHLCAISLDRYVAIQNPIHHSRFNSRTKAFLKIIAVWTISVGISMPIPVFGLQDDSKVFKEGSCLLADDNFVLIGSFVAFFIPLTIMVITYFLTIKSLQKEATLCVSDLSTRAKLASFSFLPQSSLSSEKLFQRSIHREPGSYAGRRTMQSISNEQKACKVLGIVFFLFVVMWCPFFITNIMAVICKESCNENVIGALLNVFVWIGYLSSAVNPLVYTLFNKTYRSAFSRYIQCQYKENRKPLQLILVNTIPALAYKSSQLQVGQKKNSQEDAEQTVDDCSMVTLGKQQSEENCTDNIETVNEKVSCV
T2 sequence (P19020 whole entry): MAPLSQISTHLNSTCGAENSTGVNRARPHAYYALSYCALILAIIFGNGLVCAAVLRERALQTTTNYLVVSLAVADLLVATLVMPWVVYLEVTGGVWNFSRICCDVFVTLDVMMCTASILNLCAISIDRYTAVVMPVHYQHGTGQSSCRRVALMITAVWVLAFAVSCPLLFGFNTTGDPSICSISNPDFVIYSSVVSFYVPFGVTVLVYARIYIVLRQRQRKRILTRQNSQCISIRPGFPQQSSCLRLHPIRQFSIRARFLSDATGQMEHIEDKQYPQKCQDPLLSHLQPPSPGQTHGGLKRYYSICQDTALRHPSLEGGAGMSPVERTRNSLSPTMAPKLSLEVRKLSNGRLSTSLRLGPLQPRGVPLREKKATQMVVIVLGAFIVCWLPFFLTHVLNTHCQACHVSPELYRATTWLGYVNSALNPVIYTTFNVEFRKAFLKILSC
T4 sequence (P61169 whole entry): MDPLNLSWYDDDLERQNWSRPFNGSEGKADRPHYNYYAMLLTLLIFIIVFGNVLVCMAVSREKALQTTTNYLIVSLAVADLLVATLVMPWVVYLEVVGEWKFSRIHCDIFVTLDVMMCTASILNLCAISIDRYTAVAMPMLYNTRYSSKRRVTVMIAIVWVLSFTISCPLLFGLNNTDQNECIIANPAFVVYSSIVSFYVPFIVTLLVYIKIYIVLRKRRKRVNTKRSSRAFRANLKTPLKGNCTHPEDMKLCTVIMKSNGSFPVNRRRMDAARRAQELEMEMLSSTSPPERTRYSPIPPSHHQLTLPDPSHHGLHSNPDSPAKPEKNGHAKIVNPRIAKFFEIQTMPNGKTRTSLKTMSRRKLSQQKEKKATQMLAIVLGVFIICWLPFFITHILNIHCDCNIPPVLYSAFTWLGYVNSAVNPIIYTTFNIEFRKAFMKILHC
T1 sequence (P31389 whole entry): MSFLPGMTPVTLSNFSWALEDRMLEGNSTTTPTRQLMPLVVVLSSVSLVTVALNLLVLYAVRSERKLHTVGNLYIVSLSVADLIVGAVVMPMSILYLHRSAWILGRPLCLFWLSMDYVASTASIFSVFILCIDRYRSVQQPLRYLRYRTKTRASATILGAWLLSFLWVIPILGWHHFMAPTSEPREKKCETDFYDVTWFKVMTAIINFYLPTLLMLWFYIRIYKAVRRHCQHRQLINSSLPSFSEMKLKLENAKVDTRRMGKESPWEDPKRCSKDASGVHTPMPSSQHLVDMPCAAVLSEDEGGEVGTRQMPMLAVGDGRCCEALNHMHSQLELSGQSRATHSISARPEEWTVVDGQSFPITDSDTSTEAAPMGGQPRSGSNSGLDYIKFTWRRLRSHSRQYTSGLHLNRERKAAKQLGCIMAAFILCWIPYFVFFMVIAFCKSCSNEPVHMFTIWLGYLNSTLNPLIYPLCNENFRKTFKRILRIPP

`Fc1ccc2c(C3CCN(CCCSc4nnc(-c5cccc6ccccc56)o4)CC3)noc2c1` [Compound 22, 2-(3-(4-(6-fluorobenzo[d]isoxazol-3-yl)piperidin-1-yl)propylthio)-5-(naphthalen-1-yl)-1,3,4-oxadiazole] returned an LD50 in series [1] above 2000 mg/kg. For the same compound, the Ki in series [2] was above 10000 nM; in series [3], 7.7 ± 0.6 nM; in series [6] it was 1.1 ± 0.1 nM; in series [7] it was 23 ± 2.6 nM; in series [8] it was 861 ± 86.2 nM. Also, the “MK-801-induced hyperactivity ED50 (B)” value in series [4] is reported as 3.58 (2.59–8.28) mg/kg. The “Apomorphine-induced climbing ED50 (A)” value in series [5] was 3.68 (2.79–4.86) ^a mg/kg.
